Patent publication US20200246323A1, “Antibody Drug Conjugates with Cell Permeable BCL-XL Inhibitors” (AbbVie Inc., priority 2014, published 2020)
Read-outs that look alike come from different tables or passages of the source. Marks after values point to notes of the source that are not given here.

Columns and labels:
[1] = system: Molt-4 human acute lymphoblastic leukemia cells; assay: Molt-4 cell viability assay (CellTiter-Glo, 48 hours); assay type: cell-based; settings: 10% human serum, read-out: Molt-4 Viability EC50 (nM, 10% HS)
Description: The ability of exemplary Bcl-xL inhibitors can be determined in cell-based killing assays using a variety of cell lines and mouse tumor models. For example, their activity on cell viability can be assessed on a panel of cultured tumorigenic and non-tumorigenic cell lines, as well as primary mouse or human cell populations. Bcl-xL inhibitory activity of exemplary Bcl-xL inhibitors was confirmed in a cell viability assay with Molt-4 cells.
In one exemplary set of conditions, Molt-4 (ATCC, Manassas, Va.) human acute lymphoblastic leukemia cells were plated 12,500 cells per well in 384-well tissue culture plates (Corning, Corning, N.Y.) in a total volume of 25 μL tissue culture medium supplemented with 10% human serum (Sigma-Aldrich, St. Louis, Mo.) and treated with a 3-fold serial dilution of the compounds of interest from 10 μM to 0.0005 μM. Each concentration was tested in duplicate at least 3 separate times. The number of viable cells following 48 hours of compound treatment was determined using the CellTiter-Glo Luminescent Cell Viability Assay according to the manufacturer's recommendations (Promega Corp., Madison, Wis.). Compounds were tested in the presence of 10% HS.

GST-Bcl-xL = GST-Bcl-xL (Homo sapiens, UniProt Q07817); assay: TR-FRET Bcl-xL binding assay (competition with probe F-Bak)
Protocol: Tb-anti-GST antibody was purchased from Invitrogen (Catalog No. PV4216).
For the assay, test compounds were serially diluted in DMSO starting at 50 μM (2× starting concentration; 10% DMSO) and 10 μL transferred into a 384-well plate. 10 μL of a protein/probe/antibody mix was then added to each well at final concentrations listed below:
The samples were then mixed on a shaker for 1 minute and incubated for an additional 2 hours at room temperature. For each assay plate, a probe/antibody and protein/antibody/probe mixture were included as a negative and a positive control, respectively. Fluorescence was measured on the Envision (Perkin Elmer) using a 340/35 nm excitation filter and 520/525 (F-Bak) and 495/510 nm (Tb-labeled anti-his antibody) emission filters. Dissociation constants (Ki) were determined using Wang's equation (Wang, 1995, FEBS Lett. 360:111-114). The TR-FRET assay can be performed in the presence of varying concentrations of human serum (HS) or fetal bovine serum (FBS). Compounds were tested both without HS and in the presence of 1% HS.

circulating platelets [2] = settings: SCID/bg, mouse, in vivo, po, 100 mg/kg
NCI-H1650 xenografts = assay: Inhibition of H1650 xenograft tumor growth; assay type: in vivo, mouse; settings: Table 9
circulating platelets [3] = assay: Number of circulating platelets in mice after a single dose; settings: for Lowest thrombocyte count / Time to lowest count: SCID/bg mice
EBC-1 xenografts = assay: Inhibition of EBC-1 xenograft tumor growth; assay type: in vivo, mouse; settings: Table 13, 7.5 mg/kg/day IV QDx1
NCI-H146 xenografts = assay: Inhibition of H146 xenograft tumor growth; assay type: in vivo, mouse; settings: Table 14; 50 mg/kg/day PO QDx21
NCI-H1963.FP5 xenografts = assay: Inhibition of H1963.FP5 xenograft tumor growth; assay type: in vivo, mouse; settings: Table 15; 50 mg/kg/day PO QDx21
[4] = in the presence of 1% human serum, read-out: Bcl-xL Binding Ki (nM, 1% HS)
[5] = without HS, read-out: Bcl-xL Binding Ki
[6] = 25 mg/kg/day PO QDx14, 25 mg/kg/day
[7] = single dose 0.61 mg/kg, intravenous

GST-Bcl-xL, sequence (Q07817 whole entry): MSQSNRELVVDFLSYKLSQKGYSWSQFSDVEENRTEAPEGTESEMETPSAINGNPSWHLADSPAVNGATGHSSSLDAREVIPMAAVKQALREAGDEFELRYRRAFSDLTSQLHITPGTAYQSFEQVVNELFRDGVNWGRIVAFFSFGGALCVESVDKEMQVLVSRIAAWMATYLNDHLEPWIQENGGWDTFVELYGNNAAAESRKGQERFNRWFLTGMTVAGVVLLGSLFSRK

COCCNCCOC12CC3(C)CC(C)(CC(Cn4ncc(-c5ccc(N6CCc7cccc(C(=O)Nc8nc9ccccc9s8)c7C6)nc5C(=O)O)c4C)(C3)C1)C2 [Example 1.5, 6-[8-(1,3-benzothiazol-2-ylcarbamoyl)-3,4-dihydroisoquinolin-2(1H)-yl]-3-(1-[(3-{2-[(2-methoxyethyl)amino]ethoxy}-5,7-dimethyltricyclo[3.3.1.1^3,7]dec-1-yl)methyl]-5-methyl-1H-pyrazol-4-yl)pyridine-2-carboxylic acid]
EC50 [1]: 1.85 nM | Ki (GST-Bcl-xL; [4]): 0.078 nM | Ki (GST-Bcl-xL; [5]): < 0.001 nM

CC1(C)CCC(c2ccc(Cl)cc2)=C(CN2CCN(c3ccc(C(=O)NS(=O)(=O)c4ccc(N[C@H](CCN5CCOCC5)CSc5ccccc5)c(S(=O)(=O)C(F)(F)F)c4)cc3)CC2)C1 [ABT-263, Navitoclax]
Time to lowest count (circulating platelets [2]): 6 h | Lowest thrombocyte count (circulating platelets [2]; 6 h): 10 1/10^3 of the platelet#/mm^3

Cc1c(-c2ccc(N3CCc4cccc(C(=O)Nc5nc6ccccc6s5)c4C3)nc2C(=O)O)cnn1CC12CC3(C)CC(C)(C1)CC(OCCN)(C3)C2 [Example 1.3, 3-(1-{[3-(2-aminoethoxy)-5,7-dimethyltricyclo[3.3.1.1^3,7]dec-1-yl]methyl}-5-methyl-1H-pyrazol-4-yl)-6-[8-(1,3-benzothiazol-2-ylcarbamoyl)-3,4-dihydroisoquinolin-2(1H)yl]pyridine-2-carboxylic acid]
EC50 [1]: 6.6 nM | Ki (GST-Bcl-xL; [4]): 0.097 nM | Ki (GST-Bcl-xL; [5]): < 0.001 nM

Cc1c(-c2ccc(N3CCc4cccc(C(=O)Nc5nc6ccccc6s5)c4C3)nc2C(=O)O)cnn1CC12CC3CC(CC(C3)C1)C2 [Example A-1331852]
Response Frequency CR (%) (NCI-H1650 xenografts; 25 mg/kg/day PO QDx14): 0% | Response Frequency OR (%) (NCI-H1650 xenografts; 25 mg/kg/day PO QDx14): 0% | Response Frequency PR (%) (NCI-H1650 xenografts; 25 mg/kg/day PO QDx14): 0% | Growth Inhibition TGD (%) (NCI-H1650 xenografts; [6]): 78% | Growth Inhibition TGImax (%) (NCI-H1650 xenografts; [6]): 57% | Lowest thrombocyte count (circulating platelets [3]; single dose 25 mg/kg, oral): 9 1/10^3 of the platelet#/mm^3 | Time to lowest count (circulating platelets [3]; single dose 25 mg/kg, oral): 6 h

CC(=O)O[C@@]12CO[C@@H]1C[C@H](O)[C@@]1(C)C(=O)[C@H](O)C3=C(C)[C@@H](OC(=O)[C@H](O)[C@@H](NC(=O)OC(C)(C)C)c4ccccc4)C[C@@](O)([C@@H](OC(=O)c4ccccc4)[C@H]21)C3(C)C [DTX, docetaxel]
Growth Inhibition TGD (%) (NCI-H1650 xenografts; 7.5 mg/kg/day IV QDx1): 94* % | Growth Inhibition TGImax (%) (NCI-H1650 xenografts; 7.5 mg/kg/day IV QDx1): 73* % | Response Frequency CR (%) (NCI-H1650 xenografts; 7.5 mg/kg/day IV QDx1): 0% | Response Frequency OR (%) (NCI-H1650 xenografts; 7.5 mg/kg/day IV QDx1): 0% | Response Frequency PR (%) (NCI-H1650 xenografts; 7.5 mg/kg/day IV QDx1): 0% | Response Frequency CR (%) (EBC-1 xenografts): 0% | Response Frequency OR (%) (EBC-1 xenografts): 0% | Response Frequency PR (%) (EBC-1 xenografts): 0% | Growth Inhibition TGD (%) (EBC-1 xenografts; 7.5 mg/kg/day): 44% | Growth Inhibition TGImax (%) (EBC-1 xenografts; 7.5 mg/kg/day): 76%

Cc1c(-c2ccc(N3CCc4c(F)ccc(C(=O)Nc5nc6ccccc6s5)c4C3)nc2C(=O)O)cnn1CC12CC3(C)CC(C)(C1)CC(OCCN)(C3)C2 [Example 1.6, 3-(1-{[3-(2-aminoethoxy)-5,7-dimethyltricyclo[3.3.1.1^3,7]dec-1-yl]methyl}-5-methyl-1H-pyrazol-4-yl)-6-[8-(1,3-benzothiazol-2-ylcarbamoyl)-5-fluoro-3,4-dihydroisoquinolin-2(1H)-yl]pyridine-2-carboxylic acid]
EC50 [1]: 47 nM | Ki (GST-Bcl-xL; [4]): 0.62 nM | Ki (GST-Bcl-xL; [5]): 0.019 nM

Cc1c(-c2ccc(N3CCc4ccc(F)c(C(=O)Nc5nc6ccccc6s5)c4C3)nc2C(=O)O)cnn1CC12CC3(C)CC(C)(C1)CC(OCCN)(C3)C2 [Example 1.8, 3-(1-{[3-(2-aminoethoxy)-5,7-dimethyltricyclo[3.3.1.1^3′ ]dec-1-yl]methyl}-5-methyl-1H-pyrazol-4-yl)-6-[8-(1,3-benzothiazol-2-ylcarbamoyl)-7-fluoro-3,4-dihydroisoquinolin-2(1H)-yl]pyridine-2-carboxylic acid]
Ki (GST-Bcl-xL; [4]): 17 nM | Ki (GST-Bcl-xL; [5]): 0.1 nM

Cc1c(-c2ccc(N3CCc4cccc(C(=O)Nc5nc6ccccc6s5)c4C3)nc2C(=O)O)cnn1CC12CC3(C)CC(C)(C1)CC(OCCOCCN)(C3)C2 [Example 1.4, 3-[1-({3-[2-(2-aminoethoxy)ethoxy]-5,7-dimethyltricyclo[3.3.1.1^3,7]dec-1-yl}methyl)-5-methyl-1H-pyrazol-4-yl]-6-[8-(1,3-benzothiazol-2-ylcarbamoyl)-3,4-dihydroisoquinolin-2(1H)yl]pyridine-2-carboxylic acid]
EC50 [1]: 12.1 nM | Ki (GST-Bcl-xL; [4]): 0.24 nM | Ki (GST-Bcl-xL; [5]): 0.01 nM

CNCCOC12CC3(C)CC(C)(CC(Cn4ncc(-c5ccc(N6CCc7cccc(C(=O)Nc8nc9ccccc9s8)c7C6)nc5C(=O)O)c4C)(C3)C1)C2 [Example 1.1]
Decrease of the platelet number from normal count (circulating platelets [3]; dose of 0.61 mg/kg): 100 fold | Lowest thrombocyte count (circulating platelets [3]; [7]): 6 1/10^3 of the platelet#/mm^3 | Time to lowest count (circulating platelets [3]; [7]): 6 h | EC50 [1]: 7.8 nM | Ki (GST-Bcl-xL; [4]): 0.39 nM | Ki (GST-Bcl-xL; [5]): 0.0029 nM

CNCCOCCOCCOC12CC3(C)CC(C)(CC(Cn4ncc(-c5ccc(N6CCc7cccc(C(=O)Nc8nc9ccccc9s8)c7C6)nc5C(=O)O)c4C)(C3)C1)C2 [Example 1.2, 6-[8-(1,3-benzothiazol-2-ylcarbamoyl)-3,4-dihydroisoquinolin-2(1H)-yl]-3-(1-({[(1r,3R,5S,7s)-3,5-dimethyl-7-(2-(2-[2-(methylamino)ethoxy]ethoxy}ethoxy)tricyclo[3.3.1.1^3,7]dec-1-yl]methyl)-5-methyl-1H-pyrazol-4-yl)pyridine-2-carboxylic acid]
EC50 [1]: 5.4 nM | Ki (GST-Bcl-xL; [4]): 0.51 nM | Ki (GST-Bcl-xL; [5]): 0.04 nM

CC1(C)CCC(CN2CCN(c3ccc(C(=O)NS(=O)(=O)c4ccc(NCC5CCOCC5)c([N+](=O)[O-])c4)c(Oc4cnc5[nH]ccc5c4)c3)CC2)=C(c2ccc(Cl)cc2)C1 [ABT-199]
Growth Inhibition TGD (%) (NCI-H146 xenografts): 48* % | Growth Inhibition TGImax (%) (NCI-H146 xenografts): 75* % | Response Frequency CR (%) (NCI-H146 xenografts): 0% | Response Frequency OR (%) (NCI-H146 xenografts): 0% | Response Frequency PR (%) (NCI-H146 xenografts): 0% | Growth Inhibition TGD (%) (NCI-H1963.FP5 xenografts): 22* % | Growth Inhibition TGImax (%) (NCI-H1963.FP5 xenografts): 50* % | Response Frequency CR (%) (NCI-H1963.FP5 xenografts): 0% | Response Frequency OR (%) (NCI-H1963.FP5 xenografts): 0% | Response Frequency PR (%) (NCI-H1963.FP5 xenografts): 0%

Cc1c(-c2ccc(N3CCc4cc(F)cc(C(=O)Nc5nc6ccccc6s5)c4C3)nc2C(=O)O)cnn1CC12CC3(C)CC(C)(C1)CC(OCCN)(C3)C2 [Example 1.7, 3-(1-{[3-(2-aminoethoxy)-5,7-dimethyltricyclo[3.3.1.1^3,7]dec-1-yl]methyl}-5-methyl-1H-pyrazol-4-yl)-6-[8-(1,3-benzothiazol-2-ylcarbamoyl)-6-fluoro-3,4-dihydroisoquinolin-2(1H)-yl]pyridine-2-carboxylic acid]
EC50 [1]: 4 nM | Ki (GST-Bcl-xL; [4]): 0.094 nM | Ki (GST-Bcl-xL; [5]): 0.011 nM
